This is an account of results in patent publication US4599203A, “Multisulfonated naphthalene ureas useful as complement inhibitors” (American Cyanamid Company, priority 1984, dated 1986).

Structures can show the parent of a compound that is named as a salt.

One test concerns complement. In words: Guinea Pig Intraperitoneal Test (GPIP): serum complement activity after i.p. dosing. To be noted: 200 mg/kg i.p.; for In vivo Activity Guinea Pigs Intraperitoneal % Lowering, 30 minutes: blood 30 minutes after injection; for In vivo Activity Guinea Pigs Intraperitoneal % Lowering, 60 minutes: blood 60 minutes after injection; for In vivo Activity Guinea Pigs Intraperitoneal % Lowering, 120 minutes: blood 120 minutes after injection. Type of test: in vivo. The protocol:
(§1) An active inhibitor protects C2 from C1 and C4; (ii) Test Code 036 (C-Shunt inhibitor)--In this test human erythrocytes rendered fragile are lysed in autologous serum via the shunt pathway activated by cobra venom factor in the presence of appropriate dilutions of the test compound. Inhibition of the shunt pathway results in failure of lysis; (iii) Cap 50 Test--Here, appropriate amounts of the test compound are added to a pool of guinea pig serum in vitro, after which the complement level is determined in undiluted serum by the serum capillary tube assay of U.S. Pat. No. 3,876,376. The concentration of compound inhibiting 50% is reported; and (iv) Guinea Pig Intraperitoneal Test (GPIP)--Guinea pigs weighing about 300 g are dosed intraperitoneally (i.p.) with 200 mg/kg of the test compound dissolved in saline and adjusted to pH 7-8. Approximately 0.4 ml blood samples, taken by orbital sinus puncture 30 minutes and one hour after injections, are collected directly into centrifuge tubes; 5 ml blood samples, taken by decapitation 2 hours after inJection, are collected directly into diSPo® beakers. The samples were allowed to clot, centrifuged, and the resultant sera were assayed for complement activity using the capillary complement assay. Percent inhibition is calculated by comparison with simultaneous controls. The results of the GPIP appear in Table I together with results of Test Code 026, 036 and Cap 50.

For another test, the target named is activated human C1 (Homo sapiens, UniProt P09871). In words: Test Code 026 (C1 inhibitor): protection of fluid phase human C2 from activated human C1 in the presence of C4. Format: biochemical. The note with it: serial twofold dilution assay; higher well number indicates higher activity.
The next test has as its system shunt pathway. In words: Test Code 036 (C-Shunt inhibitor): lysis of fragile human erythrocytes in autologous serum via shunt pathway activated by cobra venom factor. Format: cell-based. The note with it: serial twofold dilution assay; higher well number indicates higher activity. The protocol:
as §1, with “The results of the GPIP appear in Table I together with results of Test Code 026, 036 and Cap 50.” left out

In another test the test system is complement system. To be noted: literature report; cited from earlier work.
In test [1] the test system is hereditary angioneurotic edema. To be noted: literature report; cited from earlier work.

`O=C(Nc1cc2c(O)cc(S(=O)(=O)[O-])cc2cc1S(=O)(=O)[O-])Nc1cc2c(O)cc(S(=O)(=O)[O-])cc2cc1S(=O)(=O)[O-].[Na+].[Na+].[Na+].[Na+]` [3,3'-Ureylenebis(5-hydroxy-2,7-naphthalenedisulfonic acid), tetrasodium salt]: in the test with complement, the “In vivo Activity Guinea Pigs Intraperitoneal % Lowering, 30 minutes” value came out at 4%; the “In vivo Activity Guinea Pigs Intraperitoneal % Lowering, 60 minutes” value came to 1%; the “In vivo Activity Guinea Pigs Intraperitoneal % Lowering, 120 minutes” value is given as 28%. For the same compound, the “In vitro Activity C1 026 Wells” value on activated human C1 is given as “+4 Wells”.

Take `O=C(Nc1cc(S(=O)(=O)[O-])c2cc([N+](=O)[O-])cc(S(=O)(=O)[O-])c2c1)Nc1cc(S(=O)(=O)[O-])c2cc([N+](=O)[O-])cc(S(=O)(=O)[O-])c2c1.[Na+].[Na+].[Na+].[Na+]` [3,3'-Ureylenebis(7-nitro-1,5-naphthalenedisulfonic acid), tetrasodium salt]: the “In vitro Activity C1 026 Wells” value on activated human C1 was “+3 Wells”.

In the case of `O=C(Nc1cc2ccc(S(=O)(=O)[O-])cc2cc1S(=O)(=O)[O-])Nc1cc2ccc(S(=O)(=O)[O-])cc2cc1S(=O)(=O)[O-].[Na+].[Na+].[Na+].[Na+]` [3,3'-Ureylenedi-2,7-naphthalenedisulfonic acid, tetrasodium salt], the “In vitro Activity C1 026 Wells” value on activated human C1 is “+3 Wells”.

Turning to `O=C(Nc1cc(S(=O)(=O)O)cc2cc(S(=O)(=O)O)cc(OS(=O)(=O)c3ccccc3)c12)Nc1cc(S(=O)(=O)O)cc2cc(S(=O)(=O)O)cc(OS(=O)(=O)c3ccccc3)c12` [4,4'-Ureylenebis(5-hydroxy-2,7-naphthalenedisulfonic acid), tetrasodium salt dibenzenesulfonate], at activated human C1, the “In vitro Activity C1 026 Wells” value is “+3 Wells”.

For the compound `O=C(Nc1ccc(S(=O)(=O)[O-])c2ccc(S(=O)(=O)[O-])cc12)Nc1ccc(S(=O)(=O)[O-])c2ccc(S(=O)(=O)[O-])cc12.[Na+].[Na+].[Na+].[Na+]` [4,4'-Ureylenedi-1,6-naphthalenedisulfonic acid, tetrasodium salt], the “In vitro Activity C1 026 Wells” value at activated human C1 was “+3 Wells”.

For the compound `O=C(Nc1ccc(S(=O)(=O)[O-])c2ccccc12)Nc1ccc(S(=O)(=O)[O-])c2ccccc12.[Na+].[Na+]` [4,4'-Ureylenedi-1-naphthalenesulfonic acid, disodium salt], the “In vitro Activity C1 026 Wells” value at activated human C1 was “+2 Wells”.

With `O=C(Nc1cc(S(=O)(=O)[O-])cc2ccc(S(=O)(=O)[O-])cc12)Nc1cc(S(=O)(=O)[O-])cc2ccc(S(=O)(=O)[O-])cc12.[Na+].[Na+].[Na+].[Na+]` [4,4'-Ureylenedi-2,6-naphthalenedisulfonic acid, tetrasodium salt], the “In vitro Activity C1 026 Wells” value on activated human C1 is “+2 Wells”.

Regarding `O=C(Nc1cc(S(=O)(=O)[O-])cc2cc(S(=O)(=O)[O-])ccc12)Nc1cc(S(=O)(=O)[O-])cc2cc(S(=O)(=O)[O-])ccc12.[Na+].[Na+].[Na+].[Na+]` [4,4'-Ureylenedi-2,7-naphthalenedisulfonic acid, tetrasodium salt], on activated human C1, the “In vitro Activity C1 026 Wells” value is “+3 Wells”.

For `O=C(Nc1ccc2c(S(=O)(=O)[O-])cc(S(=O)(=O)[O-])cc2c1)Nc1ccc2c(S(=O)(=O)[O-])cc(S(=O)(=O)[O-])cc2c1.[Na+].[Na+].[Na+].[Na+]` [6,6'-Ureylenedi-1,3-naphthalenedisulfonic acid, tetrasodium salt], the “In vitro Activity C1 026 Wells” value at activated human C1 is recorded as “+3 Wells”.

Take `O=C(Nc1ccc2c(O)cc(S(=O)(=O)O)cc2c1)Nc1ccc2c(O)cc(S(=O)(=O)O)cc2c1` [6,6'-ureylenebis(1-hydroxy-3-naphthalenesulfonic acid)]: on activated human C1, the “In vitro Activity C1 026 Wells” value was “+1 Wells”.

Turning to `O=C(Nc1cc(S(=O)(=O)[O-])c2cc(S(=O)(=O)[O-])cc(S(=O)(=O)[O-])c2c1)Nc1cc(S(=O)(=O)[O-])c2cc(S(=O)(=O)[O-])cc(S(=O)(=O)[O-])c2c1.[Na+].[Na+].[Na+].[Na+].[Na+].[Na+]` [7,7'-Ureylenedi-1,3,5-naphthalenetrisulfonic acid, hexasodium salt], in the test with shunt pathway, the “In vitro Activity C-Shunt Inhibition 036 Wells” value is reported as “+1 Wells”. On activated human C1, the “In vitro Activity C1 026 Wells” value was “+6 Wells”.

For the compound `O=C(Nc1ccc2cc(S(=O)(=O)O)cc(O)c2c1)Nc1ccc2cc(S(=O)(=O)O)cc(O)c2c1` [7,7'-ureylenebis(1-hydroxy-3-naphthalenesulfonic acid)], the “In vitro Activity C1 026 Wells” value at activated human C1 is given as “+2 Wells”.

Consider `O=S(=O)([O-])c1cc(NC(=S)Nc2cc(S(=O)(=O)[O-])cc3cc(S(=O)(=O)[O-])cc(S(=O)(=O)[O-])c23)c2c(S(=O)(=O)[O-])cc(S(=O)(=O)[O-])cc2c1.[Na+].[Na+].[Na+].[Na+].[Na+].[Na+]` [8,8'-(2-Thioureylene)di-1,3,6-naphthalenetrisulfonic acid, hexasodium salt], for which, in the test with complement, the “In vivo Activity Guinea Pigs Intraperitoneal % Lowering, 30 minutes” value came to 41%; the “In vivo Activity Guinea Pigs Intraperitoneal % Lowering, 60 minutes” value is 20%; the “In vivo Activity Guinea Pigs Intraperitoneal % Lowering, 120 minutes” value was 42%. The “In vitro Activity C1 026 Wells” value at activated human C1 is “+5 Wells”.

For the compound `O=C(Nc1ccc(S(=O)(=O)[O-])c2cc(S(=O)(=O)[O-])cc(S(=O)(=O)[O-])c12)Nc1ccc(S(=O)(=O)[O-])c2cc(S(=O)(=O)[O-])cc(S(=O)(=O)[O-])c12.[Na+].[Na+].[Na+].[Na+].[Na+].[Na+]` [8,8'-Ureylenedi-1,3,5-naphthalenetrisulfonic acid, hexasodium salt], in the test with complement, the “In vivo Activity Guinea Pigs Intraperitoneal % Lowering, 30 minutes” value is recorded as 92%; the “In vivo Activity Guinea Pigs Intraperitoneal % Lowering, 60 minutes” value was 92%; the “In vivo Activity Guinea Pigs Intraperitoneal % Lowering, 120 minutes” value was 94%.

For the compound `O=C(Nc1cc(S(=O)(=O)[O-])cc2cc(S(=O)(=O)[O-])cc(S(=O)(=O)[O-])c12)Nc1cc(S(=O)(=O)[O-])cc2cc(S(=O)(=O)[O-])cc(S(=O)(=O)[O-])c12.[Na+].[Na+].[Na+].[Na+].[Na+].[Na+]` [8,8'-Ureylenedi-1,3,6-naphthalenetrisulfonic acid, hexasodium salt], in the test on complement, the “In vivo Activity Guinea Pigs Intraperitoneal % Lowering, 30 minutes” value worked out at 25%; the “In vivo Activity Guinea Pigs Intraperitoneal % Lowering, 60 minutes” value is on record as 61%; the “In vivo Activity Guinea Pigs Intraperitoneal % Lowering, 120 minutes” value came to 65%. Besides, at activated human C1, the “In vitro Activity C1 026 Wells” value is reported as “+5 Wells”.

Take `O=C(Nc1cc(S(=O)(=O)[O-])cc2cccc(S(=O)(=O)[O-])c12)Nc1cc(S(=O)(=O)[O-])cc2cccc(S(=O)(=O)[O-])c12.[Na+].[Na+].[Na+].[Na+]` [8,8'-Ureylenedi-1,6-naphthalenedisulfonic acid, tetrasodium salt]: the “In vitro Activity C1 026 Wells” value on activated human C1 was “+3 Wells”.

`Nc1ccc2cc(S(=O)(=O)[O-])cc(O)c2c1N=Nc1ccc(NC(=O)Nc2ccc(N=Nc3c(N)ccc4cc(S(=O)(=O)[O-])cc(O)c34)c(S(=O)(=O)[O-])c2)cc1S(=O)(=O)[O-].[Na+].[Na+].[Na+].[Na+]` [chlorazol fast pink, 3,3'-ureylenebis[6-(2-amino-8-hydroxy-6-sulfo-1-naphthylazo)benzenesulfonic acid], tetrasodium salt]: the anti-complementary effect entry in the test with complement system is given as “anti-complementary effect”.

Take `NCCCCCC(=O)O` [epsilon-aminocaproic acid]: the “treatment of hereditary angioneurotic edema” value in test [1] is given as “used with success”.

As to `NC[C@H]1CC[C@H](C(=O)O)CC1` [tranexamic acid], the “treatment of hereditary angioneurotic edema” value in test [1] was “used with success”.

In the case of heparin, in the test with complement system, the anti-complementary effect entry was “anti-complementary effect”.
